Experimental data: patent US9751869B2, “LXR modulators” (BRISTOL-MYERS SQUIBB COMPANY, priority 2013, dated 2017)

Molecular target: T1, LXRβ (Homo sapiens, UniProt P55055)
T1 construct: Co-transfection expression plasmids, comprising full-length LXRα (pCMX-h LXRα or LXRβ (pCMX-hLXRβ)); expressed in transfected cells; host or cells: CV-1 African green monkey kidney cells, transient transfection with pCMX-hLXRβ
T1 sequence (P55055 1-460): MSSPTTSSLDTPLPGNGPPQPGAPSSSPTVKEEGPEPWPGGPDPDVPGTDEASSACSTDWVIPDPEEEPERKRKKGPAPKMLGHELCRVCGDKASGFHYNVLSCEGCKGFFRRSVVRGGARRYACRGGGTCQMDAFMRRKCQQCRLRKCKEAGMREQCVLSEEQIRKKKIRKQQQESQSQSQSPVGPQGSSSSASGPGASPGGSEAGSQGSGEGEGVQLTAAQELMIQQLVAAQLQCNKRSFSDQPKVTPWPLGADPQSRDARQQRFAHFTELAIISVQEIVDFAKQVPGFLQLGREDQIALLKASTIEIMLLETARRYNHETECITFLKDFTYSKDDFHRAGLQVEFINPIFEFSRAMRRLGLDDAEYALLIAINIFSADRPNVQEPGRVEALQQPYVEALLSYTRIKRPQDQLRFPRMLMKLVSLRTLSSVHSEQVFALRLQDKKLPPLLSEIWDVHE
T1 sequence (P19793 1-462 partner): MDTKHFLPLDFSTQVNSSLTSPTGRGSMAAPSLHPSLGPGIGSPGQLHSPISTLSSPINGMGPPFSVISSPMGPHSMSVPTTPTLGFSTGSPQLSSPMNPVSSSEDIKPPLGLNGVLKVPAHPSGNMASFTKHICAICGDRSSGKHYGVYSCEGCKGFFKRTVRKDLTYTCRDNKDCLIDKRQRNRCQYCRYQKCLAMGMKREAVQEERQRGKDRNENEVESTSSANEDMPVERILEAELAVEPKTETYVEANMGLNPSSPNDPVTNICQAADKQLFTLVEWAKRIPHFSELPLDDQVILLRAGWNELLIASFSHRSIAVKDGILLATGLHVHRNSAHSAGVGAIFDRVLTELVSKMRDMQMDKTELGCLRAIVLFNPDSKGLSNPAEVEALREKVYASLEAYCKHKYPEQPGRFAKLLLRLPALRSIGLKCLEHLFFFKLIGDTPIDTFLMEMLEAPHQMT
Assay: LXR/LXRE co-transfection assay (luciferase reporter) in CV-1 cells, LXRβ
Assay type: cell-based
Settings: for EC50: CV-1 cells transfected with pCMX-hLXRβ and LXREx1-Tk-Luciferase, 20 hours incubation, read-out: LXRbeta agonism EC50; for Emax: CV-1 cells, relative to maximum response of high control N-(3-((4-fluorophenyl)-(naphthalene-2-sulfonyl)amino)propyl)-2,2-dimethylpropionamide, read-out: LXRbeta % EFFICACY
Procedure, shortened: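 CV-1 cells transiently co-transfected with full-length human LXRβ, LXRE-Tk-luciferase reporter and β-galactosidase control, then exposed to compound (≤0.5% DMSO) for 20 h at 37 °C before luminescence read. EC50 from 10-point, half-log dose curves; efficacy relative to the sulfonamide high control, means of 2–3 experiments.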

Row | Structure (SMILES) | EC50 [nM] | Emax [%]
1 | Cn1nc(C(F)(F)C(C)(C)O)cc1-c1ccc(-c2cccc(S(C)(=O)=O)c2)cc1-n1nncc1-c1ccc(OC(F)(F)F)cc1 [Example 7, 1,1-difluoro-2-methyl-1-(1-methyl-5-(3′-(methylsulfonyl)-3-(5-(4-(trifluoromethoxy)phenyl)-1H-1,2,3-triazol-1-yl)biphenyl-4-yl)-1H-pyrazol-3-yl)propan-2-ol] | 377 | 66
2 | Cc1nc(-c2ccc3c(c2)OC(F)(F)O3)c(-c2cc(-c3cccc(S(C)(=O)=O)c3)ccc2-c2cc(-c3nnco3)nn2C)o1 [Example 100, 2-(5-(3-(4-(2,2-difluorobenzo[d][1,3]dioxol-5-yl)-2-methyloxazol-5-yl)-3′-(methylsulfonyl)-[1,1′-biphenyl]-4-yl)-1-methyl-1H-pyrazol-3-yl)-1,3,4-oxadiazole] | 193 | 52
3 | Cc1nc(-c2cc(-c3cc(F)c(CO)c(S(C)(=O)=O)c3)ccc2-n2ccc(C(F)(F)F)n2)c(-c2ccc(Cl)cc2)o1 [Example 400, (3′-(5-(4-chlorophenyl)-2-methyloxazol-4-yl)-3-fluoro-5-(methylsulfonyl)-4′-(3-(trifluoromethyl)-1H-pyrazol-1-yl)biphenyl-4-yl)methanol] | 38 | 53
4 | Cc1nc(-c2cc(-c3cc(F)c(CO)c(S(C)(=O)=O)c3)ccc2-c2cc(C(C)(C)C(N)=O)nn2C)c(-c2ccc3c(c2)OC(F)(F)O3)o1 [Example 63, 2-(5-(3-(5-(2,2-difluorobenzo[d][1,3]dioxol-5-yl)-2-methyloxazol-4-yl)-3′-fluoro-4′-(hydroxymethyl)-5′-(methylsulfonyl)biphenyl-4-yl)-1-methyl-1H-pyrazol-3-yl)-2-methylpropanamide] | 55 | 33
5 | Cc1nc(-c2ccc3c(c2)OC(F)(F)O3)c(-c2cc(-c3cc(F)c(CO)c(S(C)(=O)=O)c3)ccc2-c2cc(C(F)(F)c3nnco3)nn2C)o1 [Example 51, (4′-(3-(difluoro(1,3,4-oxadiazol-2-yl)methyl)-1-methyl-1H-pyrazol-5-yl)-3′-(4-(2,2-difluorobenzo[d][1,3]dioxol-5-yl)-2-methyloxazol-5-yl)-3-fluoro-5-(methylsulfonyl)biphenyl-4-yl)methanol] | 7 | 73
6 | Cc1nc(-c2ccc3c(c2)OC(F)(F)O3)c(-c2cc(-c3cccc(S(C)(=O)=O)c3)ccc2-c2cc(CC(C)(C)O)nn2C)o1 [Example 121, 1-(5-(3-(4-(2,2-difluorobenzo[d][1,3]dioxol-5-yl)-2-methyloxazol-5-yl)-3′-(methylsulfonyl)-[1,1′-biphenyl]-4-yl)-1-methyl-1H-pyrazol-3-yl)-2-methylpropan-2-ol] | 175 | 40
7 | Cc1nc(-c2ccc3c(c2)OC(F)(F)O3)c(-c2cc(-c3cc(F)c(CO)c(S(C)(=O)=O)c3)ccc2-c2cc(C(C)O)nn2C)o1 (centres unmarked) [Example 103, 1-(5-(3-(4-(2,2-difluorobenzo[d][1,3]dioxol-5-yl)-2-methyloxazol-5-yl)-3′-fluoro-4′-(hydroxymethyl)-5′-(methylsulfonyl)-[1,1′-biphenyl]-4-yl)-1-methyl-1H-pyrazol-3-yl)ethanol] | 148 | 47
8 | Cc1nc(-c2ccc3c(c2)OC(F)(F)O3)c(-c2cc(-c3cc(F)c(CO)c(S(C)(=O)=O)c3)ccc2-c2cc(CC(N)=O)nn2C)o1 [Example 61, 2-(5-(3-(4-(2,2-difluorobenzo[d][1,3]dioxol-5-yl)-2-methyloxazol-5-yl)-3′-fluoro-4′-(hydroxymethyl)-5′-(methylsulfonyl)-[1,1′-biphenyl]-4-yl)-1-methyl-1H-pyrazol-3-yl)acetamide] | 592 | 40
9 | CS(=O)(=O)c1cc(-c2ccc(-n3ccc(C(F)(F)F)n3)c(-c3nc(C4CC4)oc3-c3ccc(OC(F)(F)F)cc3)c2)cc(F)c1CO [Example 402, (3′-(2-cyclopropyl-5-(4-(trifluoromethoxy)phenyl)oxazol-4-yl)-3-fluoro-5-(methylsulfonyl)-4′-(3-(trifluoromethyl)-1H-pyrazol-1-yl)biphenyl-4-yl)methanol] | 14 | 67
10 | Cc1nc(-c2cc(-c3cc(F)c(CO)c(S(C)(=O)=O)c3)ccc2-n2nc(C(F)(F)F)cc2C2CC2)c(-c2ccc(OC(F)(F)F)cc2)o1 [Example 415, (4′-(5-cyclopropyl-3-(trifluoromethyl)-1H-pyrazol-1-yl)-3-fluoro-3′-(2-methyl-5-(4-(trifluoromethoxy)phenyl)oxazol-4-yl)-5-(methylsulfonyl)biphenyl-4-yl)methanol] | 458 | 37
11 | Cc1nc(-c2ccc(Cl)cc2Cl)c(-c2cc(-c3cccc(S(C)(=O)=O)c3)ccc2-n2cc(Cl)c(C(F)(F)F)n2)o1 [Example 423, 5-(4-(4-chloro-3-(trifluoromethyl)-1H-pyrazol-1-yl)-3′-(methylsulfonyl)-[1,1′-biphenyl]-3-yl)-4-(2,4-dichlorophenyl)-2-methyloxazole] | 60 | 78
12 | Cc1nc(-c2ccc(OC(F)F)nc2)c(-c2cc(-c3cccc(S(C)(=O)=O)c3)ccc2-n2ccc(C(F)(F)F)n2)o1 [Example 353, 4-(6-(difluoromethoxy)pyridin-3-yl)-2-methyl-5-(3′-(methylsulfonyl)-4-(3-(trifluoromethyl)-1H-pyrazol-1-yl)biphenyl-3-yl)oxazole] | 23 | 93
13 | Cc1cc(C(C)(F)F)n(-c2ccc(-c3cccc(S(C)(=O)=O)c3)cc2-n2nncc2-c2ccc(OC(F)(F)F)cc2)n1 [Example 306, 1-{4-[5-(1,1-difluoroethyl)-3-methyl-1H-pyrazol-1-yl]-3′-(methylsulfonyl)biphenyl-3-yl}-5-{4-[(trifluoromethyl)oxy]phenyl}-1H-1,2,3-triazole] | 203 | 71
14 | Cc1nc(-c2ccc(OC(F)(F)F)cc2)c(-c2cc(-c3cc(F)c(CO)c(S(C)(=O)=O)c3)ccc2-n2ccc(COC(N)=O)n2)o1 [Example 375, (1-(3′-fluoro-4′-(hydroxymethyl)-3-(2-methyl-4-(4-(trifluoromethoxy)phenyl)oxazol-5-yl)-5′-(methylsulfonyl)-[1,1′-biphenyl]-4-yl)-1H-pyrazol-3-yl) methyl carbamate] | 198 | 62
15 | Cc1nc(-c2ccc3c(c2)OC(F)(F)O3)c(-c2cc(-c3cc(F)c(CO)c(S(C)(=O)=O)c3)ccc2-n2ccc(C(C)(C)O)n2)o1 [Example 358, 2-(1-(3-(4-(2,2-difluorobenzo[d][1,3]dioxol-5-yl)-2-methyloxazol-5-yl)-3′-fluoro-4′-(hydroxymethyl)-5′-(methylsulfonyl)-[1,1′-biphenyl]-4-yl)-1H-pyrazol-3-yl)propan-2-ol] | 105 | 30
16 | Cc1nc(-c2cc(-c3cc(F)c(CO)c(S(C)(=O)=O)c3)ccc2-n2nc(C(F)(F)F)cc2Cl)c(-c2ccc3c(c2)OC(F)(F)O3)o1 [Example 411, (4′-(5-chloro-3-(trifluoromethyl)-1H-pyrazol-1-yl)-3′-(5-(2,2-difluorobenzo[d][1,3]dioxol-5-yl)-2-methyloxazol-4-yl)-3-fluoro-5-(methylsulfonyl)biphenyl-4-yl)methanol] | 19 | 90
17 | CN(C)C(=O)c1cc(-c2ccc(-c3cccc(S(C)(=O)=O)c3)cc2-n2nncc2-c2ccc(OC(F)(F)F)cc2)n(C)n1 [Example 38, N,N,1-trimethyl-5-[3′-(methylsulfonyl)-3-(5-{4-[(trifluoromethyl)oxy]phenyl}-1H-1,2,3-triazol-1-yl)biphenyl-4-yl]-1H-pyrazole-3-carboxamide] | 1130 | 60
18 | Cc1nc(-c2ccc(OC(F)(F)F)cc2)c(-c2cc(-c3cccc(S(C)(=O)=O)c3)ccc2-c2cc(C(F)(F)C(N)=O)nn2C)o1 [Example 128] | 159 | 44
19 | Cc1nc(-c2ccc(OC(F)(F)F)cc2)c(-c2cc(-c3cccc(C(C)(C)C#N)c3)ccc2-n2ccc(C(F)(F)F)n2)o1 [Example 342, 2-methyl-2-(3′-(2-methyl-4-(4-(trifluoromethoxy)phenyl)oxazol-5-yl)-4′-(3-(trifluoromethyl)-1H-pyrazol-1-yl)biphenyl-3-yl) propanenitrile] | 432 | 46
